Source: PMC8587750, “Structural Optimization and Biological Activity of Pyrazole Derivatives: Virtual Computational Analysis, Recovery Assay and 3D Culture Model as Potential Predictive Tools of Effectiveness against Trypanosoma cruzi” (Molecules, 2021)
Where two headings read alike, the source gives them in different places.

What was measured:
[1] = test system: trypomastigote forms of T. cruzi; experiment: Phenotypic screening against T. cruzi trypomastigotes (Dm28c-Luc, luciferase viability, 24 h); assay type: cell-based, Trypanosoma cruzi; details: for IC50 / IC90: Trypanosoma cruzi, Dm28c-Luc, 24 h; for IC50: read-out: Trypanocidal Activity Trypomastigotes IC50; for IC90: read-out: Trypanocidal Activity Trypomastigotes IC90
Text: (§1) T. cruzi Dm28c clone genetically modified to express luciferase, kindly provided by Dr. Cristina Henriques from Oswaldo Cruz Institute–Fiocruz, was used in the drug assays. Trypomastigotes were harvested from T. cruzi-infected Vero cultures supernatants at 4th days post-infection (dpi) and used in the phenotypic screening assay. For intracellular amastigotes assays, Vero cells (2D and 3D cultures) were infected at a ratio of 10:1 parasites/host cells.
The phenotypic compound screening was performed using transgenic T. cruzi parasites expressing the firefly luciferase (Dm28c-Luc). Trypomastigotes (1 × 10^6 parasites/well) were treated for 24 h at 37 °C with the pyrazole derivatives and Bz (0.04–100 μM), followed by incubation with luciferin substrate (300 µg/mL) to determine parasite viability through luciferase activity. The concentration that reduces the number of viable parasites by 50% (IC50) or 90% (IC90) was calculated by linear regression. The luminescent signal was read on a Glomax-Multi Detection plate reader (Promega Corporation, Madison, WI, EUA)). At least three independent assays were performed in duplicate.

[2] = test system: intracellular parasites in T. cruzi-infected microtissue; experiment: 3D-microtissue-based phenotypic screening (T. cruzi-infected Vero spheroids); assay type: cell-based, Trypanosoma cruzi; details: 72 h treatment; Bz 100 µM
Description: Vero cells were seeded at a density of 2 × 10^5 cells/well in a 96-well U-bottom plate previously coated with agarose (1%). The 3D cultures, adapted from, were cultivated for 4 days in RPMI 1640 medium supplemented with 10% FBS and L-glutamine for complete 3D microtissue formation. The 3D culture model was used as a tool to evaluate the effectiveness of promising derivatives in eliminating intracellular parasites in the microtissue.
The 3D-microtissue-based phenotypic screening was performed with the promising pyrazole derivatives. […] At the end of the treatment, the 3D cultures supernatants were removed, and luciferin (300 μg/mL) was added to the spheroids. The luminescent signal was read on the Glomax-Multi Detection reader (Promega Corporation, Madison, WI, USA). Bz (100 µM) and DMSO (≤1%) were used as positive and negative control, respectively. The IC50 value was calculated by linear regression. At least three independent assays were performed in quadruplicate.

[3] = Cytotoxicity in vitro assay (ATP, CellTiter Glo, 72 h); assay type: cell-based; details: African green monkey, Vero cells
Description: Vero cells, obtained from the Rio de Janeiro Cell Bank (BCRJ code 0245), were cultured in RPMI-1640 supplemented with 10% fetal bovine serum (FBS) and 1 mM L-glutamine, as previously described. Vero cells were used for drug screening assays and to obtain trypomastigote forms of T. cruzi.
Vero cells were used as a cellular model to analyze the toxic effect of pyrazole derivatives, series 1(a–l), 2(a–l), 3(a–n), 4(a–c), and 5(a–c), and Benznidazole (Bz) on mammalian cells. Briefly, the cells, plated on 96-well white opaque microplate (1.5 × 10^4 cells/well), were treated for 72 h at 37 °C with a wide range concentration (500–1.95 µM) of the pyrazole derivatives. The cell viability was determined by measuring ATP levels using the CellTiter Glo Kit (Promega Corporation, Madison, WI, EUA) followed by reading the luminescent signal on the Glomax-Multi Detection plate reader (Promega Corporation, Madison, WI, EUA)). All treatments and controls were performed at a low concentration of DMSO (≤1%). The 50% cytotoxic concentration values (CC50; the concentration of the compound that reduces 50% of the cell viability) were estimated by linear regression analysis. Three independent assays were performed in duplicate.

[4] = test system: intracellular amastigotes of T. cruzi; experiment: Activity against intracellular amastigotes in infected Vero cells (Dm28c-Luc, 72 h); assay type: cell-based, Trypanosoma cruzi; details: for Intracellular Amastigotes SI: CC50 of Vero cells/IC50 of intracellular amastigote; for IC50 / IC90: Trypanosoma cruzi; for IC90: read-out: Trypanocidal Activity Intracellular Amastigotes IC90
Text: as §1
The effect of the pyrazole derivatives against intracellular amastigotes was also evaluated after 72 h treatment (37 °C) with compound concentrations ranging from 0.04–100 µM [13]. Parasite viability, measured by luminescent signal, was determined after luciferin (300 µg/mL) addition. IC50 and IC90 values were calculated by linear regression. Selectivity index (SI) was calculated as the ratio of the CC50 to IC50 values. The non-toxic concentration of DMSO (less than 1% v/v) was used in all assays. A minimum of three independent assays was carried out in duplicate.

[5] = test system: T. cruzi (Dm28c-Luc) in Vero cells; experiment: Reversibility (washout) assay, parasite recrudescence in infected Vero cells; assay type: cell-based, Trypanosoma cruzi; details: 100 µM, 72 h after washout
Description: To address the question of whether the treatment with 3g, 3j, and 3m leads to parasite clearance, an intracellular T. cruzi washout assay was performed as a strategy for monitoring the parasite recrudescence. In this approach, cultures of infected Vero cells (Dm28c-Luc) were treated for 72 h at IC90 and 50 µM (2 to 5-fold de IC90) concentrations of the promising compounds 3g, 3j, and 3m and, after washing the cell monolayers, the cultures were kept for another 72 h without drug treatment. Both cell monolayers and their supernatants were evaluated for the presence of viable parasites after luciferin addition. All derivatives analyzed relapsed at the IC90 concentration (Figure 3). However, treatment with 3g, 3j, and 3m led to a significant reduction in the parasite load, reaching a decrease of 4.5-, 1.9-, and 8.7-fold, respectively, when compared to untreated infected Vero cells cultures (Figure 3). The emergence of trypomastigotes in the supernatant, at IC90 concentration, was observed three days after removal of drug pressure, but with a significant reduction in viable parasites compared to untreated cultures (Figure 3). Parasite recrudescence was not seen in 100 µM Bz treatment (Figure 3).
The washout assay, adapted from, was performed to evaluate the promising compounds efficacy. […] After successive washing, the cultures were maintained for an additional 72 h at 37 °C in RPMI 1640 medium supplemented with 10% SFB in the absence of the compound. Luciferin (300 µg/mL) was added separately to the culture supernatant, previously removed, and the cell monolayer. The luminescent signal was read on the Glomax-Multi Detection reader (Promega Corporation, Madison, WI, USA). Bz (100 µM) and DMSO (≤1%) were used as positive and negative reaction controls, respectively.

[6] = test system: T. cruzi cysteine protease; experiment: Cysteine protease activity of trypomastigote total protein extracts (Z-FR-AMC); assay type: biochemical, Trypanosoma cruzi; details: concentrations ≥ 11.11 µM
Description: Total protein extract from trypomastigotes (Dm28c-Luc; 10^8 parasites/mL) were extracted with lysis buffer. Cysteine protease activity of extracts (5 μg) was measured in acetate buffer using fluorogenic peptide substrate (60 μM of 7-Amino-4-Methylcoumarin hydrochloride, CBZ-L-Phenylalanyl-L-Arginine amide (Z-FR-AMC). Total protein extracts were incubated for 45 min at room temperature with the compounds and changes in relative fluorescence units monitored using a SpectraMaxM2e spectrophotometer (Molecular Devices, Sunnyvale, CA, USA) for 1 h with excitation at 370 nm and emission at 460 nm. The inhibition assays were performed by coincubation with different compounds (3g, 3j, and 3m) and concentrations (300–11.11 µM) and transepoxysuccinyl-L-leucylamido-(4-guanidino) butane (E-64). Additional control was carried out with DMSO (≤1%). Enzymatic activity was expressed in µmol/min/mg of protein and the residual activity in percentage.
Figure 6 Inhibition of T. cruzi cysteine protease activity. Total protein extracts of trypomastigotes (5 µg), was incubated at different concentrations (300–11.11 µM) of compounds E64 (black circle), 3g (black triangle), 3j (black square) and 3m (white circle) in enzyme activation buffer pH 5.0, at 37 °C. Enzyme activity was measured using a specific fluorogenic peptide substrate Z-FR-AMC (60 µM). Results are presented as percentage of inhibition of enzyme activity (%) and represent the mean and standard deviation (±) of three independent experiments.

[7] = Vero, negative log of the IC50 value in molar, read-out: Intracellular Amastigotes pIC50 (converted)
[8] = Vero cells infected with Dm28c-Luc, 72 h
[9] = Vero, 72 h, Vero cells infected with Dm28c-Luc, 72 h, read-out: Trypanocidal Activity Intracellular Amastigotes IC50

O=C(Cn1ccnc1[N+](=O)[O-])NCc1ccccc1 [Bz, benznidazole, reference compound]
Trypomastigotes SI ([1]; CC50 of Vero cells/IC50 of trypomastigote): >26.7 | IC50 [1]: 18.7 ± 4.58 µM | IC90 [1]: > 100 µM | viability of intracellular parasites in microtissue, luminescence intensity (ALU) [2]: 18,858 ± 3726 ALU | CC50 at 72 h [3]: > 500 µM | Intracellular Amastigotes SI [4]: >107 | IC50 [4, 7]: 4.68 µM | IC50 ([4]; Vero cells infected with Dm28c-Luc, 72 h, read-out: Trypanocidal Activity Intracellular Amastigotes IC50): 4.67 ± 0.22 µM | IC90 [4, 8]: > 100 µM | parasite recrudescence [5]: not seen

Brc1cccc(-n2cc(C3=NCCN3)cn2)c1 [Compound 3k, 1-(3-bromophenyl)-4-(4,5-dihydro-1H-imidazol-2-yl)-1H-pyrazole]
IC50 [1]: > 100 µM | CC50 at 72 h [3]: 211 ± 31.7 µM | fold drop in activity on moving Cl or Br to the meta position ([4]; 3b compared to 3g, 3k compared to 3j): 10 fold | Intracellular Amastigotes SI [4]: 7.84 | IC50 [4, 9]: 26.9 ± 2.19 µM | IC50 [4, 7]: 26.9 µM | IC90 [4, 8]: 72.9 ± 3.67 µM | melting point: 116 to 120 °C

COc1ccc(-n2cc(C3=NCCN3)cn2)cc1 [Compound 3l, 4-(4,5-dihydro-1H-imidazol-2-yl)-1-(4-methoxyphenyl)-1H-pyrazole]
IC50 [1]: > 100 µM | CC50 at 72 h [3]: > 500 µM | Intracellular Amastigotes SI [4]: >7 | IC50 [4, 9]: 71.8 ± 2.71 µM | IC50 [4, 7]: 72.4 µM | IC90 [4, 8]: > 100 µM | melting point: 196 to 197 °C

Cc1cc(Cl)ccc1-n1cc(C2=NCCN2)cn1 [Compound 3n, 1-(4-chloro-2-methylphenyl)-4-(4,5-dihydro-1H-imidazol-2-yl)-1H-pyrazole]
IC50 [1]: > 100 µM | CC50 at 72 h [3]: 342 ± 30 µM | Intracellular Amastigotes SI [4]: 13.86 | IC50 [4, 9]: 24.7 ± 3.42 µM | IC50 [4, 7]: 24.5 µM | IC90 [4, 8]: 85.7 ± 5.03 µM | melting point: 174 to 176 °C

Cc1nn(-c2cccc(Cl)c2)c(N)c1C1=NCCN1 [Compound 4a, 5-amino-1-(3-chlorophenyl)-3-methyl-4-(4,5-dihydro-1H-imidazol-2-yl)-1H-pyrazole]
IC50 [1]: > 100 µM | IC90 [1]: > 100 µM | CC50 at 72 h [3]: > 500 µM | IC50 [4, 9]: > 100 µM | IC50 [4, 7]: > 100 µM | IC90 [4, 8]: > 100 µM | melting point: 116 to 120 °C

Cc1nn(-c2cc(Cl)cc(Cl)c2)c(N)c1C1=NCCN1 [Compound 4b, 5-amino-1-(3,5-dichlorophenyl)-3-methyl-4-(4,5-dihydro-1H-imidazol-2-yl)-1H-pyrazole]
IC50 [1]: > 100 µM | IC90 [1]: > 100 µM | CC50 at 72 h [3]: > 500 µM | Intracellular Amastigotes SI [4]: >5.51 | IC50 [4, 9]: 90.7 ± 13.2 µM | IC50 [4, 7]: 91.2 µM | IC90 [4, 8]: > 100 µM | melting point: 193 to 194 °C

Cc1nn(-c2ccc(Cl)c(Cl)c2)c(N)c1C1=NCCN1 [Compound 4c, 5-amino-1-(3,4-dichlorophenyl)-3-methyl-4-(4,5-dihydro-1H-imidazol-2-yl)-1H-pyrazole]
IC50 [1]: > 100 µM | IC90 [1]: > 100 µM | CC50 at 72 h [3]: 355 ± 17.7 µM | Intracellular Amastigotes SI [4]: 3.78 | IC50 [4, 9]: 93.8 ± 16.4 µM | IC50 [4, 7]: 93.3 µM | IC90 [4, 8]: > 100 µM | melting point: 221 to 224 °C

CC1CN=C(c2cnn(-c3cccc(Cl)c3)c2N)N1 (stereo not drawn) [Compound 5a, 5-amino-1-(3-chlorophenyl)-4-(4-(5)-methyl-4,5-dihydro-1H-imidazol-2-yl)-1H-pyrazole]
IC50 [1]: > 100 µM | IC90 [1]: > 100 µM | CC50 at 72 h [3]: > 500 µM | IC50 [4, 9]: > 100 µM | IC50 [4, 7]: > 100 µM | IC90 [4, 8]: > 100 µM | melting point: 169 to 172 °C

CC1CN=C(c2cnn(-c3cc(Cl)cc(Cl)c3)c2N)N1 (stereo not drawn) [Compound 5b, 5-amino-1-(3,5-dichlorophenyl)-4-(4-(5)-methyl-4,5-dihydro-1H-imidazol-2-yl)-1H-pyrazole]
IC50 [1]: > 100 µM | IC90 [1]: > 100 µM | CC50 at 72 h [3]: > 500 µM | Intracellular Amastigotes SI [4]: >15.17 | IC50 [4, 9]: 33 ± 8.84 µM | IC50 [4, 7]: 33.1 µM | IC90 [4, 8]: > 100 µM | melting point: 189 to 192 °C

CC1CN=C(c2cnn(-c3ccc(Cl)c(Cl)c3)c2N)N1 (stereo not drawn) [Compound 5c, 5-amino-1-(3,4-dichlorophenyl)-4-(-4(5)-methyl-4,5-dihydro-1H-imidazol-2-yl)-1H-pyrazole]
IC50 [1]: > 100 µM | IC90 [1]: > 100 µM | CC50 at 72 h [3]: 343 ± 37 µM | IC50 [4, 9]: 34.3 ± 4.24 µM | IC50 [4, 7]: 34.7 µM | IC90 [4, 8]: > 100 µM | melting point: 191 to 193 °C

CC(C)C[C@H](NC(=O)[C@H]1O[C@@H]1C(=O)O)C(=O)NCCCCN=C(N)N [Compound E-64, transepoxysuccinyl-L-leucylamido-(4-guanidino) butane, reference compound]
inhibition of cysteine protease enzymatic activity [6]: greater than 80%
